Assay results published in patent US5547965A, “Use of substituted amines for the treatment of brain function disorders” (Bayer Aktiengesellschaft, priority 1994, dated 1996).

Molecular target: Nicotine receptor
Experiment: [3H]-cytisine displacement in rat brain membrane preparation
Assay type: binding
Details: negative common logarithm of the concentration giving 50% displacement of specifically bound [3H]-cytisine; rat brain homogenate, 22° C., 60 min
Protocol: The effect on nicotinergic receptors of the central nervous system is determined by a generally customary standard method for receptor binding studies (E. C. Hulme, Editor, Receptor-Ligand Interactions, Oxford University Press, 1992, pp 1-458). The binding was measured here by displacement of [^3 H]-cytisine by the active compounds in the rat brain membrane preparation.
Rats were sacrificed by decapitation and the entire brain was then removed immediately and processed. All following steps were carried out with cooling to 4° C. The brain was homogenized in sucrose solution (110 g of sucrose/l; 20 ml of solution per 1 g of brain mass) with the aid of a mixer. Coarse constituents were removed by centrifugation of the homogenate for 10 min at 1200 g and subsequent filtration through 5 layers of muslin. The suspension which remained (called homogenate in the following) was frozen and stored at -20° C. until use.
Buffer A for the test batch: 100 mM K2 HPO4 /KH2 PO4, pH 7.4, containing 1 g/ of bovine serum albumin.
For the determination of the displacement of [^3 H]-cytisine by the active compounds the following batch (1 ml total volume) was mixed together: 250 μl of thawed homogenate, 600 μl of buffer, 100 μl of active compound solution in buffer A (containing a concentration series in dilution steps with a factor of 10 between a maximum of 10^-2 M and a minimum of 10^-10 M of active compound, and 2 μl of methanol, from a concentrated stock solution of the active compounds), 50 μl of (^3 H)-cytisine solution in buffer A (containing 1.48 pmol of (^3 H)-cytisine, corresponding to 1.67 KBq, and 5 μl of ethanol, from a concentrated stock solution). In controls which contained no homogenate or no active compound, the missing volume was replaced by buffer A.
The batches were incubated at 22° C. in a shaking water bath for 60 min. To end incubation of the batches, 3 ml of ice-cold buffer A was added in each case and the whole solution was rapidly filtered through GF/C glass fibre filters. The filters were premoistened with a 1% strength solution of Prosil in buffer A. The filters were also washed twice with 3 ml of ice-cold buffer A each time. The filters were then removed and the radioactivity bound to the filters was determined in a liquid scintillation apparatus after addition of 10 ml of suitable scintillation cocktail.
All values were determined in duplicate and averaged. The concentration of active compound which leads to a 50% displacement of the specifically bound [^3 H]-cytisine was calculated from the concentration series by a logit transformation or by the 4-parameter logistic model (T. Chard; An Introduction to Radioimmunoassay and Related Techniques; Elsevier, Amsterdam, 1990; pp 613-171; statistical assessment by computer). The negative common logarithm of this concentration is called the pI50 in the following.

Row | Compound | pI30
1 | CCCC(c1ccc(F)cc1)N1CNC(NCc2ccc(Cl)nc2)=C([N+](=O)[O-])C1 (stereo not shown) [Example 1] | 6.6
2 | O=[N+]([O-])C=C1NCCN1Cc1ccc(Cl)c(F)c1 [Example 2] | 5.3
3 | CC(=O)NCCN1CC([N+](=O)[O-])=C2N(Cc3ccc(Cl)nc3)CCN2C1 [Example 3] | 6.5
4 | COc1cccc(CN2CCN(Cc3ccc(Cl)nc3)C2=N[N+](=O)[O-])c1 [Example 4] | 5.1
5 | CC(=NC#N)N(C)Cc1ccc(Cl)nc1 [Example 5] | 6.2
6 | NC(=N[N+](=O)[O-])N1CCN(Cc2ccc(Cl)nc2)C1 [Example 6] | 4.8
7 | O=[N+]([O-])C=C1NCCN1Cc1cccnc1 [Example 7] | 5.9
8 | O=[N+]([O-])C=C1NCCN1Cc1ccncc1 [Example 8] | 4.6
9 | Cc1ccc(CN2CCNC2=C[N+](=O)[O-])cn1 [Example 9] | 6.4
10 | O=[N+]([O-])C=C1NCCN1Cc1cnc(Cl)s1 [Example 10] | 6.2
11 | N#CC=C1NCCN1Cc1ccc(Cl)nc1 [Example 11] | 5.8
12 | O=[N+]([O-])N=C1NCCN1Cc1cccnc1 [Example 12] | 5.7
13 | N#CC=C1CCCN1Cc1ccc(Cl)nc1 [Example 13] | 6.6
14 | O=[N+]([O-])C=C1OCCN1Cc1ccc(Cl)nc1 [Example 14] | 6.4
15 | CN1CN(C)C(=N[N+](=O)[O-])N(Cc2ccc(Cl)nc2)C1 [Example 15] | 5.2
16 | O=[N+]([O-])C=C1NCCN1c1ccc(Cl)nc1 [Example 16] | 4.6

Test system: rats
Experiment: rat forced swimming test
Assay type: in vivo
Details: po, 5 min, period of immobility over 5 minutes, administered between the two swimming tests
Description: The activity of the substituted amines described in the treatment and prevention of affective disorders is confirmed with the aid of the "rat forced swimming test". This behavioural model was described for the first time by R. D. Porsolt et al. (Nature 266; 730, 1977) and today is a generally recognized in-vivo screening model for the discovery of new antidepressants. It is based on the observation that rats in a hopeless situation remain in an immobile position ("behavioural despair"). In a preliminary test, young adult rats (3-4 months old) are placed individually for 20 minutes in glass cylinders (height 40 cm, diameter 20 cm) which are filled with water to a height of 15 cm. 24 hours after this preliminary test, the animals are again transferred to the cylinders and the period of immobility is measured over a space of time of 5 minutes.
The substituted amines described are administered in the time interval between the two swimming tests. Controls receive the vehicle.

Row | Compound | ED50 [mg/kg]
17 | CC(=O)NCCN1CC([N+](=O)[O-])=C2N(Cc3ccc(Cl)nc3)CCN2C1 [Example 3] | 4.1
18 | O=[N+]([O-])C=C1NCCN1Cc1cnc(Cl)s1 [Example 10] | 1.5
19 | O=[N+]([O-])N=C1NCCN1Cc1cccnc1 [Example 12] | 2.5
